Experimental findings from patent EP0198605A1, “Prophylaxis of pharmacotherapy of liver disorders” (TEIJIN LIMITED, priority 1985, dated 1986) are described below.

The subject of test [1] is hepatic necrocytosis induced by carbon tetrachloride. The experiment in a line: Hepatic necrocytosis induced by carbon tetrachloride (in vivo), serum GOT and GPT. Further details: species or system SD male rats. Conditions: for Enzyme Activity GOT (U/L) / Enzyme Activity GPT (U/L): 10 µg/kg, 6 administrations, CCl4 0.5 ml/kg i.p. As for the experimental part: In the evaluation tests, 6 weeks old SD male rats were used. […] The rats were freely fed or supplied with a solid feed and drinking water.
Carbon tetrachloride (CC14) was diluted with an olive oil and was peritoneally injected in each rat at a dosage of 0.5 ml/kg. To the control group, only CC14 diluted with the olive oil and a 5% gum arabic solution containing no active ingredient were administered. Furthermore, only the olive oil but no CC14 was administered to the olive oil injection group in the Tables.
The methincyanine compounds listed in Tables 4 to 6 were administered as follows. Methincyanine compounds were diluted 100 times with dextrose dissolved in 5% gum arabic solutions. The administration schedules were such that the methiocyanine compounds were administered 6 times in total from 5 days before the CC14 injection to the day of the injection.
Blood was sampled from the orbital veniplex of the rat and was allowed to stand at room temperature for one hour. The blood sample was then centrifugally separated at 2800 rpm for 10 minutes. The resultant supernatant was used as a serum sample.
The determination of GOT and GPT in the serum sample was carried out by using a determination kit (available from Boeklinger-Yamanouchi Co.) and the results were recorded in an automatic analyzer (available from FLEXIGEM Co.).

Test [2] relates to hepatic disorders induced by D-galactosamine. As to the kind of experiment: Hepatic disorders induced by D-galactosamine in rats (serum GOT, GPT, bilirubin, complement value). The test is classed as in vivo, Wister male rats. Conditions: DSCG i.p. 1 mg/kg, GalN 250 mg/kg i.p., serum two days after GalN. As for the experimental part: In the evaluation tests, 8 to 9 weeks old Wister male rats were used. Five rats were used in each test group. The rats were given standard chow and water ad libitum.
D-Galactosamine hydrochloride (GalN) was dissolved in sterilized physiological saline and the pH thereof was adjusted to 7. The resultant solution was peritoneally administered to each rat at a dosage of 250 mg/kg. To one control group, only GalN was injected, and physiological saline was administered to the other control group instead of pionin. Furthermore, only physiological saline but no GaIN was injected to the physiological saline administration group.
The pionin was administered as follows. It is diluted 10, 100, and 1000 times with dextrose and these diluted powders were dissolved in saline. All drugs were intravenously or orally administered at doses of 0.1, 0.5, 1, and 10 pg/kg. The administration was carried out from five days before to the day after the GaIN injection.
The rats were killed two days after the injection of GalN and blood was collected. The blood samples were allowed to stand at room temprature for one hour and serum was then centrifugally separated at 2500 rpm for 10 minutes.
The determination of GOT and GPT in the serum samples was carried out according to a modification of the Reitman-Framkel method [see Amir. J. Clin. Pothil. 28, 56 (1957) and J. Clin. Invest. 34, 131 (1955)], the determination of bilirubin was carried out according to a modification of Jendrassik-Grof method [see Clinical Chemistry, 19, 984-993 (1973)], and the determination of the complement value was carried out according to the Mayer method (see Experimental Immunochemistry, 2, 133-240, 1961).
The results are shown in Table 2 (i.e., intravenous administration of pionin) and Table 3 (i.e., oral administration of pionin). Disodium cromoglycate (i.e., DSCG) was used as a control.

Test [3] has the same test system. Described as above. The test is classed as in vivo, Wister male rats. The settings on record: DSCG i.p. 1 mg/kg, GalN 250 mg/kg i.p., serum two days after GalN. This is another data set of the same source.

Turning to `CCCCCCCCCCCCN1C(C)=CSC1=Cc1scc(C)[n+]1CCCC` [Compound of Example 1, 2-[2-(3-dodecyl-4-methyl-4-thiazolin-2-ylidene)methyl]-3-butyl-4-methyl thiazolinium iodide], in test [1] (Table 6, oral), the “Enzyme Activity GOT (U/L)” value is listed as 627 ± 92 U/L and the “Enzyme Activity GPT (U/L)” value is on record as 198 ± 37 U/L. Also, the “inhibiting liver necrocytosis induced by CCl4 (result in words)” value in test [1] (in vivo, summary of Tables 4 to 6) is recorded as “strong inhibiting activities against liver necrocytosis induced by CC14 when compared with pionin”.

Regarding `CCCCCCCCCCCCN1C(C)=CSC1=Cc1scc(C)[n+]1CC` [Compound of Example 3, 2-[2-(3-dodecyl-4-methyl-4-thiazolin-2-ylidene)methyl]-3-ethyl-4-methyl thiazolinium iodide], in test [1] (Table 5, oral), the “Enzyme Activity GOT (U/L)” value came to 435 ± 67 U/L and the “Enzyme Activity GPT (U/L)” value is listed as 107 ± 18 U/L.

As to `CCCCCCC[n+]1cc(C)sc1C=C1SC=C(C)N1CCCC` [Compound of Example 4, 2-[2-(3-butyl-4-methyl-4-thiazolin-2-ylidene)methyl]-3-heptyl-5-methyl thiazolinium iodide], in test [1] (Table 5, oral), the “Enzyme Activity GOT (U/L)” value is recorded as 386 ± 50 U/L and the “Enzyme Activity GPT (U/L)” value is 118 ± 21 U/L.

With `CCCCCCC[n+]1c(C=C2SC=C(C)N2CCCC)sc(C)c1C` [Compound of Example 5, 2-[2-(3-butyl-4-methyl-4-thiazolin-2-ylidene)methyl]-3-heptyl-4,5-dimethyl thiazolinium iodide], in test [1] (Table 5, oral), the “Enzyme Activity GOT (U/L)” value came to 393 ± 59 U/L and the “Enzyme Activity GPT (U/L)” value is 135 ± 29 U/L.

Take `CCCCCCCCCCN1C(C)=CSC1=Cc1scc(C)[n+]1CCCC` [Compound of Example 8, 2-[2-(3-decyl-4-methyl-4-thiazolin-2-ylidene)methyl]-3-butyl-4-methylthiazolinium iodide]: in test [1] (Table 5, oral), the “Enzyme Activity GOT (U/L)” value is recorded as 310 ± 68 U/L and the “Enzyme Activity GPT (U/L)” value was found to be 99 ± 27 U/L.

For the compound `O=C(O)c1cc(=O)c2c(OCC(O)COc3cccc4oc(C(=O)O)cc(=O)c34)cccc2o1` [DSCG, Disodium cromoglycate, reference compound], the “Enzyme activity GPT (K.U.)” value in test [2] (Table 2 experiment) is listed as 220 ± 20 K.U. For the same compound, in test [2] (Table 3 experiment), the “Bilirubin” value was determined as 0.21 mg/dL and the “Enzyme activity GOT (K.U.)” value was determined as 480 ± 50 K.U. Also, in test [3] (Table 2 experiment), the “Bilirubin” value was 0.29 mg/dL, the “Complement value (%)” value was 88.4% and the “Enzyme activity GOT (K.U.)” value is recorded as 400 ± 42 K.U. In addition, in test [3] (Table 3 experiment), the “Complement value (%)” value amounted to 80.4% and the “Enzyme activity GPT (K.U.)” value was found to be 230 ± 33 K.U.
